System: 377384-186-R-J1-PDC complex spheroid viability
Test: Anticancer human tumor 377384-186-R-J1-PDC patient-derived pancreatic carcinoma cell line growth inhibition [RAS]
Settings: for IC50: curve of first compound; for viability, T/C: stronger effect = lower value
Method in brief: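 Tumour cells grown as complex spheroids with HUVEC endothelial cells and mesenchymal stem cells, treated with RAS pathway inhibitor combinations. Each agent spans half-log steps from near clinical Cmax, or 10 microM where Cmax is unknown.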

[1] = second compound 0.000949 µM, first compound 0.0316 µM
[2] = second compound 0.000949 µM, first compound 0.1 µM
[3] = second compound 0.000949 µM, first compound 0.316 µM
[4] = second compound 0.000949 µM, first compound 1 µM
[5] = second compound 0.003 µM, first compound 0.0316 µM
[6] = second compound 0.003 µM, first compound 0.1 µM
[7] = second compound 0.003 µM, first compound 0.316 µM
[8] = second compound 0.003 µM, first compound 1 µM
[9] = second compound 0.00949 µM, first compound 0.0316 µM
[10] = second compound 0.00949 µM, first compound 0.1 µM
[11] = second compound 0.00949 µM, first compound 0.316 µM
[12] = second compound 0.00949 µM, first compound 1 µM
[13] = second compound 0.03 µM, first compound 0.0316 µM
[14] = second compound 0.03 µM, first compound 0.1 µM
[15] = second compound 0.03 µM, first compound 0.316 µM
[16] = second compound 0.03 µM, first compound 1 µM
[17] = second compound 0.0949 µM, first compound 0.0316 µM
[18] = second compound 0.0949 µM, first compound 0.1 µM
[19] = second compound 0.0949 µM, first compound 0.316 µM
[20] = second compound 0.0949 µM, first compound 1 µM
[21] = second compound 0.3 µM, first compound 0.0316 µM
[22] = second compound 0.3 µM, first compound 0.1 µM
[23] = second compound 0.3 µM, first compound 0.316 µM
[24] = second compound 0.3 µM, first compound 1 µM
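Note: spheroids exposed to compounds for seven days before readout.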

`CCc1c2c(nc3ccc(O)cc13)-c1cc3c(c(=O)n1C2)COC(=O)[C@]3(O)CC` + CCn1c(-c2cccnc2C(C)OC)c2c3cc(ccc31)N1CCOC(CC(NC(=O)C(C(C)C)N(C)C(=O)C3(F)CCN(C(=O)C#CC(C)(C)N(C)C)CC3)C(=O)N3CCCC(N3)C(=O)OCC(C)(C)C2)C1 showed an IC50 (second compound 0.000949 µM) of 2.42 nM, an IC50 (second compound 0.003 µM) of 2 nM and an IC50 (second compound 0.00949 µM) of 2 nM. For the same compound, the IC50 (second compound 0.03 µM) was 1.53 nM, the IC50 (second compound 0.0949 µM) was under 0.949 nM and the IC50 (second compound 0.3 µM) was under 0.949 nM. For the same compound, the viability, T/C (second compound 0.000949 µM, first compound 0.000949 µM) was 65.9%, the viability, T/C (second compound 0.000949 µM, first compound 0.003 µM) was 46.6% and the viability, T/C (second compound 0.000949 µM, first compound 0.00949 µM) was 18.3%. For the same compound, the viability, T/C (second compound 0.000949 µM, first compound 0.03 µM) was 7.36%, the viability, T/C (second compound 0.000949 µM, first compound 0.0949 µM) was 3.93% and the viability, T/C (second compound 0.000949 µM, first compound 0.3 µM) was 1.53%. The viability, T/C (second compound 0.003 µM, first compound 0.000949 µM) was 71.5%, the viability, T/C (second compound 0.003 µM, first compound 0.003 µM) was 37.9% and the viability, T/C (second compound 0.003 µM, first compound 0.00949 µM) was 19.8%. It also gave a viability, T/C (second compound 0.003 µM, first compound 0.03 µM) of 6.9%, a viability, T/C (second compound 0.003 µM, first compound 0.0949 µM) of 3.65% and a viability, T/C (second compound 0.003 µM, first compound 0.3 µM) of 2.05%. It also gave a viability, T/C (second compound 0.00949 µM, first compound 0.000949 µM) of 75.7%, a viability, T/C (second compound 0.00949 µM, first compound 0.003 µM) of 35.7% and a viability, T/C (second compound 0.00949 µM, first compound 0.00949 µM) of 15.8%. It also gave a viability, T/C (second compound 0.00949 µM, first compound 0.03 µM) of 5.59%, a viability, T/C (second compound 0.00949 µM, first compound 0.0949 µM) of 2.54% and a viability, T/C (second compound 0.00949 µM, first compound 0.3 µM) of 1.72%. The viability, T/C (second compound 0.03 µM, first compound 0.000949 µM) was 61.3%, the viability, T/C (second compound 0.03 µM, first compound 0.003 µM) was 34.7% and the viability, T/C (second compound 0.03 µM, first compound 0.00949 µM) was 14.4%. For the same compound, the viability, T/C (second compound 0.03 µM, first compound 0.03 µM) was 8.65%, the viability, T/C (second compound 0.03 µM, first compound 0.0949 µM) was 3.55% and the viability, T/C (second compound 0.03 µM, first compound 0.3 µM) was 1.17%. It also gave a viability, T/C (second compound 0.0949 µM, first compound 0.000949 µM) of 49.1%, a viability, T/C (second compound 0.0949 µM, first compound 0.003 µM) of 34.9% and a viability, T/C (second compound 0.0949 µM, first compound 0.00949 µM) of 14.8%. The viability, T/C (second compound 0.0949 µM, first compound 0.03 µM) was 5.24%, the viability, T/C (second compound 0.0949 µM, first compound 0.0949 µM) was 3.02% and the viability, T/C (second compound 0.0949 µM, first compound 0.3 µM) was 1.67%. The viability, T/C (second compound 0.3 µM, first compound 0.000949 µM) was 45.4%, the viability, T/C (second compound 0.3 µM, first compound 0.003 µM) was 30.3% and the viability, T/C (second compound 0.3 µM, first compound 0.00949 µM) was 7.93%. The viability, T/C (second compound 0.3 µM, first compound 0.03 µM) was 4.05%, the viability, T/C (second compound 0.3 µM, first compound 0.0949 µM) was 2.71% and the viability, T/C (second compound 0.3 µM, first compound 0.3 µM) was 1.08%.
`C=CC(=O)Nc1cc(Nc2nccc(-c3cn(C)c4ccccc34)n2)c(OC)cc1N(C)CCN(C)C` + CCn1c(-c2cc(N3CCN(C)CC3)cnc2C(C)OC)c2c3cc(ccc31)-c1csc(n1)CC(NC(=O)C1CC1C)C(=O)N1CCCC(N1)C(=O)OCC(C)(C)C2 showed an IC50 (second compound 0.000949 µM) of under 3.16 nM, an IC50 (second compound 0.003 µM) of under 3.16 nM and an IC50 (second compound 0.00949 µM) of under 3.16 nM. For the same compound, the IC50 (second compound 0.03 µM) was under 3.16 nM, the IC50 (second compound 0.0949 µM) was under 3.16 nM and the IC50 (second compound 0.3 µM) was under 3.16 nM. The viability, T/C (second compound 0.000949 µM, first compound 0.00316 µM) was 30%, the viability, T/C (second compound 0.000949 µM, first compound 0.01 µM) was 45% and the viability, T/C [1] was 32.3%. For the same compound, the viability, T/C [2] was 27.5%, the viability, T/C [3] was 12.1% and the viability, T/C [4] was 4.35%. The viability, T/C (second compound 0.003 µM, first compound 0.00316 µM) was 17.5%, the viability, T/C (second compound 0.003 µM, first compound 0.01 µM) was 17.3% and the viability, T/C [5] was 11.2%. The viability, T/C [6] was 4.88%, the viability, T/C [7] was 2.22% and the viability, T/C [8] was 1.8%. It also gave a viability, T/C (second compound 0.00949 µM, first compound 0.00316 µM) of 4.04%, a viability, T/C (second compound 0.00949 µM, first compound 0.01 µM) of 11% and a viability, T/C [9] of 3.16%. The viability, T/C [10] was 3.12%, the viability, T/C [11] was 1.55% and the viability, T/C [12] was 1.78%. For the same compound, the viability, T/C (second compound 0.03 µM, first compound 0.00316 µM) was 2.43%, the viability, T/C (second compound 0.03 µM, first compound 0.01 µM) was 1.94% and the viability, T/C [13] was 1.75%. It also gave a viability, T/C [14] of 2.15%, a viability, T/C [15] of 2.02% and a viability, T/C [16] of 1.52%. For the same compound, the viability, T/C (second compound 0.0949 µM, first compound 0.00316 µM) was 2.3%, the viability, T/C (second compound 0.0949 µM, first compound 0.01 µM) was 1.82% and the viability, T/C [17] was 1.99%. For the same compound, the viability, T/C [18] was 2.1%, the viability, T/C [19] was 1.5% and the viability, T/C [20] was 0.91%. For the same compound, the viability, T/C (second compound 0.3 µM, first compound 0.00316 µM) was 2.2%, the viability, T/C (second compound 0.3 µM, first compound 0.01 µM) was 1.68% and the viability, T/C [21] was 1.82%. For the same compound, the viability, T/C [22] was 1.46%, the viability, T/C [23] was 1.28% and the viability, T/C [24] was 0.91%.
Work on `CC1(O)CCCC1n1c(=O)c(C(F)F)cc2cnc(NC3CCN(S(C)(=O)=O)CC3)nc21` (stereo unspecified) + CCn1c(-c2cc(N3CCN(C)CC3)cnc2C(C)OC)c2c3cc(ccc31)-c1csc(n1)CC(NC(=O)C1CC1C)C(=O)N1CCCC(N1)C(=O)OCC(C)(C)C2 yielded an IC50 (second compound 0.000949 µM) of under 31.6 nM, an IC50 (second compound 0.003 µM) of under 31.6 nM and an IC50 (second compound 0.00949 µM) of under 31.6 nM. For the same compound, the IC50 (second compound 0.03 µM) was under 31.6 nM, the IC50 (second compound 0.0949 µM) was under 31.6 nM and the IC50 (second compound 0.3 µM) was under 31.6 nM. It also gave a viability, T/C [1] of 46.6%, a viability, T/C [2] of 24.9% and a viability, T/C [3] of 16.1%. For the same compound, the viability, T/C [4] was 14.2%, the viability, T/C (second compound 0.000949 µM, first compound 3.16 µM) was 18.5% and the viability, T/C (second compound 0.000949 µM, first compound 10 µM) was 4.43%. It also gave a viability, T/C [5] of 20.3%, a viability, T/C [6] of 10.9% and a viability, T/C [7] of 9.42%. For the same compound, the viability, T/C [8] was 11.9%, the viability, T/C (second compound 0.003 µM, first compound 3.16 µM) was 13.4% and the viability, T/C (second compound 0.003 µM, first compound 10 µM) was 2.79%. It also gave a viability, T/C [9] of 4.59%, a viability, T/C [10] of 4.26% and a viability, T/C [11] of 4.8%. For the same compound, the viability, T/C [12] was 4.95%, the viability, T/C (second compound 0.00949 µM, first compound 3.16 µM) was 6.03% and the viability, T/C (second compound 0.00949 µM, first compound 10 µM) was 2.54%. It also gave a viability, T/C [13] of 2.77%, a viability, T/C [14] of 2.5% and a viability, T/C [15] of 3.09%. The viability, T/C [16] was 3.54%, the viability, T/C (second compound 0.03 µM, first compound 3.16 µM) was 3.12% and the viability, T/C (second compound 0.03 µM, first compound 10 µM) was 2%. The viability, T/C [17] was 1.91%, the viability, T/C [18] was 2.25% and the viability, T/C [19] was 2.46%. For the same compound, the viability, T/C [20] was 2.54%, the viability, T/C (second compound 0.0949 µM, first compound 3.16 µM) was 1.98% and the viability, T/C (second compound 0.0949 µM, first compound 10 µM) was 2.3%. For the same compound, the viability, T/C [21] was 2%, the viability, T/C [22] was 2.25% and the viability, T/C [23] was 2.49%. For the same compound, the viability, T/C [24] was 2.5%, the viability, T/C (second compound 0.3 µM, first compound 3.16 µM) was 1.75% and the viability, T/C (second compound 0.3 µM, first compound 10 µM) was 1.85%.

From PubChem BioAssay AID2060903 (Molecular Pharmacology Branch, DTP, NCI, 2025)
